Reference: patent EP1604976A1 (Advance Holdings Limited, priority 2004, dated 2005)
Values after ≈ are worked out from the molar mass of the structure shown.

Key:
[1] = stability of product of Formula (I) in aqueous solution / acid medium; assay type: physicochemical
[2] = water solubility of products of Formula (I)
COX-2 = COX-2 (Homo sapiens, UniProt P35354); settings: Famaey 1997; Cullen et al. 1998; cited from earlier work
Chain of COX-2 (P35354 18-604): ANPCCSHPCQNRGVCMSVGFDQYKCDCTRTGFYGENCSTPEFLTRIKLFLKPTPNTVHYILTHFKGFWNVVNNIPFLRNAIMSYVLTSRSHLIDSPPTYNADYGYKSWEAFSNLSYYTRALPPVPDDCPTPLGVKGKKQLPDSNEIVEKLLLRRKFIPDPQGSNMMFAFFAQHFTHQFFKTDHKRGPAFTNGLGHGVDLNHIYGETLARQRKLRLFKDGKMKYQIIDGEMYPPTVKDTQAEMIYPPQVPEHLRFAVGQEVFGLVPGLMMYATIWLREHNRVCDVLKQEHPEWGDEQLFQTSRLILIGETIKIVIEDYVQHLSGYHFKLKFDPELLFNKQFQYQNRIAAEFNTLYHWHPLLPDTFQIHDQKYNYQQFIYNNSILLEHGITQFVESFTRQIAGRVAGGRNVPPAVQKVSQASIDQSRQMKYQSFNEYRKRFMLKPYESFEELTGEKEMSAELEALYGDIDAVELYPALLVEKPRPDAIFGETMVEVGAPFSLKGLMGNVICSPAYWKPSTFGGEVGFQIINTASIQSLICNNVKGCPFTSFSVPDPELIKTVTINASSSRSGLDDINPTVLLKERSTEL

SMILES: CS(=O)(=O)N(c1ccc([N+](=O)[O-])cc1Oc1ccccc1)S(=O)(=O)O [acid form (X = H)]
- stability of the acid form ([1]; especially in an acid medium): rather unstable

SMILES: CS(=O)(=O)N(c1ccc([N+](=O)[O-])cc1Oc1ccccc1)S(=O)(=O)O [Product I in which X is Na]
- effect of acidification of the solution ([1]; acidification to about pH 2 with HCl): decomposition of the product and precipitation of the theoretical quantity of nimesulide
- stability of the aqueous solution ([1]; approximately 3.5 wt.% aqueous solution, room temperature, seventh day): still stable on the seventh day
- solubility [2]: ~35 mg/mL (≈ 90.1 mM)

SMILES: CS(=O)(=O)Nc1ccc([N+](=O)[O-])cc1Oc1ccccc1 [nimesulide]
- COX-2 versus COX-1 inhibition preference (COX-2): inhibit preferentially COX-2 more than COX-1
